Assay results reported in US12467927B2, “Fluorescence resonance energy transfer (FRET) nanoprobe and preparation method and use thereof” (QILU UNIVERSITY OF TECHNOLOGY, priority 2022, dated 2025).

Test: Zeta potential determination
Format: physicochemical
Experimental: Size and Zeta potential determinations were conducted on a Zetasizer Nano ZS (ZEN 3600, Malvern Instruments Ltd.). Transmission electron microscopy (TEM) images were determined by a transmission electron microscope (JEM-2100, JEOL). The fluorescence was measured by an F-4600 Fluorescence Spectrophotometer (Japan); the confocal fluorescence images of cells were obtained by a Nikon laser confocal microscope (Nikon, Japan).
The synthesized HMSN were characterized by TEM and dynamic light scattering (DLS). […] Meanwhile, the particle size distribution measured by DLS was mainly around 140 nm (FIG. 2). The experimental data was matched up with each other. […] The particle size of PAMAM (G=1.5) dendrimer was characterized by TEM. […] The particle size distribution measured by DLS was around 8 nm (FIG. 5). […] Meanwhile, to prevent the early leakage of DOX, the DOX was encapsulated by the RVRR peptide and PAMAM/TPE. To verify the successful encapsulation of HMSN/DOX, TEM characterization was conducted. […] Characterized by DLS and Zeta potential, the particle size distribution of the transparent thin layer structure was around 160 nm (FIG. 7), and a Zeta potential was 3.25 mV (FIG. 8).

Row | zeta potential | Compound
1 | 24.3 mV | COc1cccc2c1C(=O)c1c(O)c3c(c(O)c1C2=O)C[C@@](O)(C(=O)CO)C[C@@H]3O[C@H]1C[C@H](N)[C@H](O)[C@H](C)O1 [DOX, doxorubicin]
2 | −8.6 mV | O=C(O)c1ccc(C(=C(c2ccccc2)c2ccccc2)c2ccccc2)cc1 [TPE-COOH, 1-(4-carboxyphenyl)-1,2,2-triphenylethylene]
